Results as given in the NIST ThermoML archive (doi:10.1016/j.jct.2018.12.032).
± gives the expanded uncertainty stated by the source.

Assays:
[1] = for vapor or sublimation pressure: Transpiration method
[2] = Molar enthalpy of transition or fusion; settings: Crystal; DSC

c1ccc(-n2c3ccccc3c3ccccc32)cc1 [N-phenylcarbazole]
vapor or sublimation pressure ([1]; 330.1 K, Crystal): 9.2e-06 ± 1e-05 kPa | vapor or sublimation pressure ([1]; 336.4 K, Crystal): 2.01e-05 ± 1.1e-05 kPa | vapor or sublimation pressure ([1]; 343.5 K, Crystal): 4.67e-05 ± 1.3e-05 kPa | vapor or sublimation pressure ([1]; 349.2 K, Crystal): 9.26e-05 ± 1.5e-05 kPa | vapor or sublimation pressure ([1]; 350 K, Metastable liquid): 0.000128 ± 1.7e-05 kPa | vapor or sublimation pressure ([1]; 356.1 K, Crystal): 0.00019 ± 2.1e-05 kPa | vapor or sublimation pressure ([1]; 356.1 K, Metastable liquid): 0.000224 ± 2.4e-05 kPa | vapor or sublimation pressure ([1]; 362.8 K, Crystal): 0.0003947 ± 3.4e-05 kPa | vapor or sublimation pressure ([1]; 362.8 K, Metastable liquid): 0.000395 ± 3.4e-05 kPa | vapor or sublimation pressure ([1]; 368.5 K, Metastable liquid): 0.000657 ± 4.9e-05 kPa | vapor or sublimation pressure ([1]; 372.4 K, Liquid): 0.000913 ± 6.7e-05 kPa | vapor or sublimation pressure ([1]; 377.3 K, Liquid): 0.001342 ± 9.3e-05 kPa | Normal melting temperature ([1]; Crystal, DTA): 94.8 ± 0.5 °C | Glass transition temperature ([1]; Glass, DSC): -18.3 ± 0.8 °C | Molar enthalpy of transition or fusion [2]: 4.64 ± 0.12 kcal/mol
